Here are results for eight compounds from paper PMC8049054, “Systematic Assessment of Fragment Identification for Multitarget Drug Design” (Chemmedchem, 2021).

Bounds are passed on as bounds.

The target of the experiment is T1, soluble epoxide hydrolase (sEH) (Homo sapiens, UniProt P34913).
T1 construct: made in house; host or cells: E. coli BL21 (DE3)
T1 sequence (P34913 1-555): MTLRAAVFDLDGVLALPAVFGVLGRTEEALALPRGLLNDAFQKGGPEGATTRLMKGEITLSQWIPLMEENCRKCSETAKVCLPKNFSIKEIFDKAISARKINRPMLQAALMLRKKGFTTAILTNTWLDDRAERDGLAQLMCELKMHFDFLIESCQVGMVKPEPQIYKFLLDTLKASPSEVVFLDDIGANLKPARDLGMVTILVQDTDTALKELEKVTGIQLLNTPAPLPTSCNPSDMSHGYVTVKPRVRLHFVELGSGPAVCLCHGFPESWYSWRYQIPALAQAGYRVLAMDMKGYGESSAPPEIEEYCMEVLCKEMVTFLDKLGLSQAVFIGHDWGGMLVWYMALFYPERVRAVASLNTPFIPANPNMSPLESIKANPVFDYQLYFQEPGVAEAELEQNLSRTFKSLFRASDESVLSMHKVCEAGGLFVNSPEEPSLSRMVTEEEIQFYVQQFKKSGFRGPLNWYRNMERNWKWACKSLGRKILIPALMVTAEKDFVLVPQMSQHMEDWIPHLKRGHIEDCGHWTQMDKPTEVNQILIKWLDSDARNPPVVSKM
Kind of experiment: sEH-H activity assay (fluorogenic substrate PHOME). It is filed as biochemical. The following applies: for sEH LE: ligand efficiency calculated from IC50; for IC50: mean±standard deviation of three independent experiments. The procedure:
For hit validation, we employed secondary assays with orthogonal readouts to confirm fragment activities. Biochemical activity assays were chosen for the enzymes sEH, LTA4H, and 5‐LOX. […] RXRα and FXR modulation was assessed in cell‐based hybrid reporter gene assays. All ten compounds were tested at a single concentration of 500 μM in the sEH and LTA4H activity assays and with a concentration of 100 μM on 5‐LOX, RXRα, and FXR. Fragments showing an inhibition greater than 50 % (sEH‐H and LTA4H) or greater than 70 % (5‐LOX) as well as the hits determined in the DSF experiments were further characterized in full concentration‐response curves between 0.1 and 1000 μM. […] As alternative cell‐free assay we employed isothermal titration calorimetry (ITC) to determine binding affinity of the fragments towards the LBDs of both nuclear receptors. ITC was performed with a protein concentration of 50 μM and compound concentrations of 250 μM.
The 10 fragments showing dual activity in the DSF experiments were validated by functional assay screening with a fixed concentration of 500 µM in case of sEH-H and LTA4H, 100 µM in case of 5-LOX and 30 µM, 10 µM and 5 µM in case of FXR and […]
% (5-LOX) as well as the hits determined in the DSF experiments were further measured with concentrations between 1000 µM and 0.1 µM (sEH-H and LTA4H) and between 300 µM and 1 µM (5-LOX). The sEH and LTA4H activity assays were performed as triplicate and repeated 3 times. The 5-LOX activity assay was performed with one point per concentration and repeated 3 times Raw data was first analyzed in Microsoft Office Excel (2013), before IC50 curves were plotted and further analyzed using GraphPad Prism 7 and GraphPad Prism 8 for the shown graphs .
The eight approved drugs were measured in the orthogonal assay systems analogous to the fragments. The approved drugs were […]
For the sEH-H and LTA4H, they were measured as triplicate in concentrations between 1000 µM and 1 µM and each measurement was repeated three times. For the 5-LOX they were measured as single point measurement in three different experiments with concentrations between 300 µM and 1 µM. For […]
Raw data was processed according to the fragments.
The sEH-H activity assay was performed adapted from Hahn et al.5 and Lukin et al.6. In short 1 µl of compound dilution in DMSO or pure DMSO (for the positive and negative control) was placed in a black 96-well plate (Thermo Scientific™ Nunc™ F96 MicroWell™ Black Polystyrene Plate) and then 89 µl of protein-mix or buffer mix (without protein as negative control) were added and the mixture was incubated for 30 min at room temperature. 10 µl of 0.6 mM 3-phenyl-cyano(6-methoxy-2-naphthalenyl)methylester-2-oxiraneacetic acid (PHOME) were added to every well. The Plate was measured every minute for 45 min. Final concentration per well was 3 nM sEH-Fl, 0.001 % Triton X-100, 25 mM Bis-tris, 0.1 mg/ml BSA, pH = 7.0, 1.6% DMSO […]

Regarding `Cc1cc(=O)n(-c2ccc(C)c(C)c2)[nH]1` [Compound 2], the “sEH LE” value is 0.35 kcal/mol and the IC50 was found to be 135 ± 9.1 µM. The like results for `CCCCOc1cc(C(=O)OC)ccc1N` [Compound 3] were, in that order, less than 0.3 kcal/mol and more than 300 µM.

For `Oc1ccc(Cc2ccccc2)cc1` [Compound 4], the concentration for half-maximal inhibition (IC50) worked out at 151 ± 5.8 µM. As for `Cc1ccccc1C(=O)Nc1ccccc1` [Compound 6], the “sEH LE” value was 0.31 kcal/mol and the half-maximal inhibitory concentration (IC50) is 226 ± 18.5 µM. Regarding `CCN(Cc1ccccc1)c1ccccc1` [Compound 7], the IC50 turned out to be 56.6 ± 5.4 µM. Consider `Clc1ccc2c(c1)Nc1ccccc1CC2` [Compound 8], for which the “sEH LE” value is reported as 0.33 kcal/mol and the concentration for half-maximal inhibition (IC50) was 141 ± 34.1 µM.

Regarding `Oc1ccc(-c2ccc(F)cc2F)cc1` [Compound 9], the “sEH LE” value is 0.36 kcal/mol and the half-maximal inhibitory concentration (IC50) turned out to be 108 ± 11 µM.

In the case of `Fc1ccc(-c2c[nH]c3ccccc23)cc1` [Compound 10], the “sEH LE” value is given as 0.33 kcal/mol and the IC50 was found to be 120 ± 22.4 µM.

As a reminder, the IC50 is the concentration that inhibits the measured activity by half.
